Measurements reported in ChEMBL document CHEMBL1133063, “Nonbenzamidine compounds as selective factor Xa inhibitors” (Bioorg Med Chem Lett, 2000).

How the values were obtained:
Coagulation factor X = Coagulation factor X (Homo sapiens, UniProt P00742); assay: Compound was evaluated for the inhibitory activity against Coagulation factor X
Serine protease 1 [1] = biological target: T1, Serine protease 1 (Homo sapiens, UniProt P07477); assay: Compound was evaluated for the inhibitory activity against trypsin.
[2] = biological target: T2, Tissue-type plasminogen activator (Homo sapiens, UniProt P00750); assay: Compound was evaluated for the inhibitory activity against t-PA.
[3] = biological target: Vitamin K-dependent protein C (Homo sapiens, UniProt P04070); assay: Compound was evaluated for the inhibitory activity against Activated protein C
Plasminogen = Plasminogen (Homo sapiens, UniProt P00747); assay: Compound was evaluated for the inhibitory activity against plasmin
Prothrombin = Prothrombin (Homo sapiens, UniProt P00734); assay: Compound was evaluated for the inhibitory activity against thrombin
[4] = biological target: T2, Tissue-type plasminogen activator; assay: Compound was evaluated for the inhibitory activity against t-PA
Serine protease 1 [5] = biological target: T1, Serine protease 1; assay: Compound was evaluated for the inhibitory activity against trypsin

Chain of Coagulation factor X (P00742 41-179 limits assumed): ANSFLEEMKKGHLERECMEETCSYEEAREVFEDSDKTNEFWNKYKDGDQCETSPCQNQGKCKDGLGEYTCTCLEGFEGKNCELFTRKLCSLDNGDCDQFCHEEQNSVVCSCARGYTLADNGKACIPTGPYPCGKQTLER
Chain of Coagulation factor X (P00742 235-488 limits assumed): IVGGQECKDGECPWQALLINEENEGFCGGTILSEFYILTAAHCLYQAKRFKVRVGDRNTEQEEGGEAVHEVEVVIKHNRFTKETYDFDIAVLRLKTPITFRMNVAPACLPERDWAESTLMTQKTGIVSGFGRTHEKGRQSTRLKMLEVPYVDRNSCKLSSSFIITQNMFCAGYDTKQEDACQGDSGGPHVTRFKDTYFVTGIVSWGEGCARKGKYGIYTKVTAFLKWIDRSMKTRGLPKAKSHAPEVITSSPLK
Chain of Plasminogen (P00747 97-580 limits assumed): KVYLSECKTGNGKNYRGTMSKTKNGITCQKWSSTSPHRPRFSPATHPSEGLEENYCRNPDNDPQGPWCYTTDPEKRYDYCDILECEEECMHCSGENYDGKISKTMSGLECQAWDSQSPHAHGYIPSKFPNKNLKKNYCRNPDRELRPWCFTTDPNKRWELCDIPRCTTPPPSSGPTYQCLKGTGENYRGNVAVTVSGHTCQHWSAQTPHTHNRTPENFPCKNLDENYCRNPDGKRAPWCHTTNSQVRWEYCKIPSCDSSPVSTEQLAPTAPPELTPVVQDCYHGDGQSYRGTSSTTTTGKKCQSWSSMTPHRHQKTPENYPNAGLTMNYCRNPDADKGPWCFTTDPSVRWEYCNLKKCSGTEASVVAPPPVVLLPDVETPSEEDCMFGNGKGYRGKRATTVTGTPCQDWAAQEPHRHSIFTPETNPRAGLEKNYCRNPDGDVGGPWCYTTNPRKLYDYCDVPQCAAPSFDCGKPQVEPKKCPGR
Chain of Plasminogen (P00747 581-810 limits assumed): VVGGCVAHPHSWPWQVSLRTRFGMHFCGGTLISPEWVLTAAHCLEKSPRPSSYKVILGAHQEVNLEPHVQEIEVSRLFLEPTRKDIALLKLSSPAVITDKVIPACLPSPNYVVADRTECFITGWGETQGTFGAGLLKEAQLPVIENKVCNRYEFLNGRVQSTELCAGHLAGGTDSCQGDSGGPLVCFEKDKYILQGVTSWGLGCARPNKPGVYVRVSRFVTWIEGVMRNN
T1 sequence (P07477 whole entry): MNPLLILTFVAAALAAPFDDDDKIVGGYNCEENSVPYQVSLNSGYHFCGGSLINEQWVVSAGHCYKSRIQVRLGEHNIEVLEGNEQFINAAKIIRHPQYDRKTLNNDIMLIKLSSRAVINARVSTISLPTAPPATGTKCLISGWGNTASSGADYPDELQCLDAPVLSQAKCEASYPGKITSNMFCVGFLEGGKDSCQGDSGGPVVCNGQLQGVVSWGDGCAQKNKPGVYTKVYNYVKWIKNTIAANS
T2 sequence (P00750 whole entry): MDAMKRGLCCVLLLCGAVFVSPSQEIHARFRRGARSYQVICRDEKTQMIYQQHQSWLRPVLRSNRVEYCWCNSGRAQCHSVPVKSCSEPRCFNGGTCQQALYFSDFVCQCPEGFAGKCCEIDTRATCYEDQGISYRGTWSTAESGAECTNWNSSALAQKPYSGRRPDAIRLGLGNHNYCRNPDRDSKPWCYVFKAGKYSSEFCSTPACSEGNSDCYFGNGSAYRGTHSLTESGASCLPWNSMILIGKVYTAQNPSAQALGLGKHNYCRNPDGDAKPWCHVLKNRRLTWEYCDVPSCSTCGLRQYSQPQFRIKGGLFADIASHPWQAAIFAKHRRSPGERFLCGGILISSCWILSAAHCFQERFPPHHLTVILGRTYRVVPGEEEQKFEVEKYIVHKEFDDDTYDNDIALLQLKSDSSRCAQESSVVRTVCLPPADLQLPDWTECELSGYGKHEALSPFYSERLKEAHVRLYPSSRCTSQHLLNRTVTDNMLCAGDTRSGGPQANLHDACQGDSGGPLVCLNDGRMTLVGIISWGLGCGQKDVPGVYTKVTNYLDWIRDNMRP
Chain of Vitamin K-dependent protein C (P04070 43-197 limits assumed): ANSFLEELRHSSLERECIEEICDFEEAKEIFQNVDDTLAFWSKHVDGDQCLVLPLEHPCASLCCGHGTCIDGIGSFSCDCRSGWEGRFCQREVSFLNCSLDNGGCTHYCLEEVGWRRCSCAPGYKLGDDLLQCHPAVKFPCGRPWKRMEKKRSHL
Chain of Vitamin K-dependent protein C (P04070 212-461 limits assumed): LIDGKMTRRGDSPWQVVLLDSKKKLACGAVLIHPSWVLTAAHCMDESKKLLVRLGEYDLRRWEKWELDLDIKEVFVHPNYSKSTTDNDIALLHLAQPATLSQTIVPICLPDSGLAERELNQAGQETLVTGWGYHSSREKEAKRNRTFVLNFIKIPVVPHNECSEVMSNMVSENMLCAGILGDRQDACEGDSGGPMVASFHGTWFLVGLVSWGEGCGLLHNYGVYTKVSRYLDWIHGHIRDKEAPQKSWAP

Ki (Coagulation factor X)	Compound	other results
> 1200 nM	O=C(CN1CCN(S(=O)(=O)c2cc3ccc(Cl)cc3s2)CC1=O)NCCCn1ccnc1	
620 nM	Nc1nc(CCNC(=O)CN2CCN(S(=O)(=O)c3cc4ccc(Cl)cc4s3)CC2=O)cs1	
270 nM	Cc1ncsc1CCNC(=O)CN1CCN(S(=O)(=O)c2cc3ccc(Cl)cc3s2)CC1=O	
> 1200 nM	O=C(CN1CCN(S(=O)(=O)c2cc3ccc(Cl)cc3s2)CC1=O)Nc1ccccc1	
140 nM	O=C(CN1CCN(S(=O)(=O)c2cc3ccc(Cl)cc3s2)CC1=O)NCCc1ccccn1	
620 nM	O=C(CN1CCN(S(=O)(=O)c2cc3ccc(Cl)cc3s2)CC1=O)NCCc1c[nH]c(S)n1	
> 1200 nM	O=C(CN1CCN(S(=O)(=O)c2cc3ccc(Cl)cc3s2)CC1=O)NC1CCNCC1	
> 1200 nM	CN(C(=O)CN1CCN(S(=O)(=O)c2cc3ccc(Cl)cc3s2)CC1=O)c1ccncc1	
160 nM	O=C(CN1CCN(S(=O)(=O)c2cc3ccc(Cl)cc3s2)CC1=O)NCCc1cscn1	
> 1200 nM	COC(=O)[C@H](Cc1c[nH]cn1)NC(=O)CN1CCN(S(=O)(=O)c2cc3ccc(Cl)cc3s2)CC1=O	
430 nM	Cn1cnc(CCNC(=O)CN2CCN(S(=O)(=O)c3cc4ccc(Cl)cc4s3)CC2=O)c1	

More lines, now with the values behind:

Compound	Ki (Coagulation factor X)	other results
O=C(CN1CCN(S(=O)(=O)c2cc3ccc(Cl)cc3s2)CC1=O)NCCc1ccncc1	59 nM	
O=C(CN1CCN(S(=O)(=O)c2cc3ccc(Cl)cc3s2)CC1=O)NCCn1ccnc1	> 1200 nM	
O=C(CN1CCN(S(=O)(=O)c2cc3ccc(Cl)cc3s2)CC1=O)Nc1ccncn1	97 nM	
O=C(CN1CCN(S(=O)(=O)c2cc3ccc(Cl)cc3s2)CC1=O)Nc1cccnc1	> 1200 nM	
O=C(CN1CCN(S(=O)(=O)c2cc3ccc(Cl)cc3s2)CC1=O)Nc1ccncc1	170 nM	
Cn1cccc1CCNC(=O)CN1CCN(S(=O)(=O)c2cc3ccc(Cl)cc3s2)CC1=O	> 1200 nM	
Cc1[nH]cnc1CCNC(=O)CN1CCN(S(=O)(=O)c2cc3ccc(Cl)cc3s2)CC1=O	340 nM	
COC(=O)[C@@H](Cc1cnc[nH]1)NC(=O)CN1CCN(S(=O)(=O)c2cc3ccc(Cl)cc3s2)CC1=O	> 1200 nM	
O=C(CN1CCN(S(=O)(=O)c2cc3ccc(Cl)cc3s2)CC1=O)NCCc1cccnc1	250 nM	
Nc1cc(CCNC(=O)CN2CCN(S(=O)(=O)c3cc4ccc(Cl)cc4s3)CC2=O)ccn1	140 nM	
Cn1cncc1CCNC(=O)CN1CCN(S(=O)(=O)c2cc3ccc(Cl)cc3s2)CC1=O	12 nM	Ki (Serine protease 1 [1]): > 2900 nM; Ki [2]: > 8.7 µM; Ki [3]: > 18 µM; Ki (Plasminogen): > 7.3 µM; Ki (Prothrombin): > 4 µM
O=C(CN1CCN(S(=O)(=O)c2cc3ccc(Cl)cc3s2)CC1=O)NCCc1cnc[nH]1	21 nM	Ki [4]: > 8.7 µM; Ki [3]: > 18 µM; Ki (Serine protease 1 [5]): > 2900 nM; Ki (Plasminogen): > 7.3 µM; Ki (Prothrombin): > 4 µM
O=C(CN1CCN(S(=O)(=O)c2cc3ccc(Cl)cc3s2)CC1=O)NCc1cccnc1	> 1200 nM	
